pIC50: −log10 of the molar value.
System: HDAC activity in HeLa cell nuclear extracts
Assay type: biochemical
Details: read-out: IC50, inhibition of HDAC activity in HeLa cell nuclear extracts; preliminary assessment, fluorescence assay

In the case of CCC(=O)CCCCC[C@@H]1NC(=O)[C@H]2CCCCN2C(=O)[C@H]([C@@H](C)CC)NC(=O)[C@H](Cc2cn(OC)c3ccccc23)NC1=O [apicidin], the pIC50 was ≥ 7.00.

Source: article PMC3041267 (Angewandte Chemie (International ed. in English), 2009)
